Laboratory results as given in patent US20050220906A1, “Pharmaceutical composition for treating rheumatism and the preparation thereof” (priority 2002, published 2005).

Assays:
PCA in rat = experiment: Passive cutis anaphylactic reaction (PCA); format: in vivo; details: 0.1 g/kg
Procedure: The rats were injected with the egg albumn at 10 mg/kg in the muscle. At the same time, all the rats were injected with 2×10^10 (0.2 ml) bordetella pertussis in the abdominal cavity for sensitization. 2 weeks later, all the rats were killed to sample the blood. All the blood samples were separated for preparing the serum.
60 rats, 150˜200 g, half male and half female, were divided into 6 groups at random. In the light narcosis condition induced by aether, each rat was cut the fleece in the back and injected with the 2 concentrations of anti-egg-album serum 0.1 ml under the skin at the fairless place. The serums were diluted on the rates of 1:5(d1) and 1:10(d2) before the experiment. 48 hours later, all the rats were attacked by intravenous injecting the 0.5% evans blue normal saline solution 1 ml which containing 1 mg egg albumin. 20 minutes later, the rats were killed by decapitation. The rats' back skin were dissected and turned over. According to the dark and light and area of the blue stains exudated from the vessels, all the rats were evaluated by several people. The skin stained by the evens blue were scissored and soaked in 5 ml 0.1% sodium sulfate acetone (7:3) solution for 48 hours. Then it was centrifugated to separate the supernatant liquor. The supernates were measured the optical density at the wavelength 590 nm to calculate the degree of the PCA reaction and the inhibiting percent.

DTH caused by DNFB = experiment: Delayed hypersensitivity (DTH) caused by DNFB in the mouse ear; format: in vivo, NIH mouse; details: 0.003 g/kg, administration day 0˜5
Procedure: Each mouse was led to hypersensitivity reaction by using the 1% DNFB acetone solution on the dosage of 0.025 ml at the right place of the abdomen where the pilus had been cut yet. Using the same solution on the same place was to enhance the hypersensitivity reaction on the third day. On the fifth day, all the mice were smeared with the 1% DNFB edible oil solution at the mice's right ears on the dosage of 0.01 ml each. 24 hours later, all the mice were killed. The mouse's 2 ears were weighted by the torsion balance and the difference of the 2 ears was recorded as the DTH degree caused by the DNFB. The experiment was carried out on the different immune and administration processes.
The immune and administration processes is as following: [drawing 1]

macrophage = experiment: CRBC phagocytosis of abdominal macrophages; format: in vivo, mouse; details: 0.005 g/kg, 7 days
Procedure: 50 NIH mice, 18˜22 g weight, half male and half female, were divided into 5 groups and drenched with the correspondent medicine solutions on the same volumn. The administration was once a day for 7 days. 1 hour after the last administration, all the mice were injected with 0.2 ml 10% chick RBC into the abdominal carvity. 4 hours later, all the mice were killed and sampled the fluid in the abdomincal carvity. The liquor samples were dropped on the glass and counted the number of the macrophage which had phagocytized the CRBC and the number of the CRBC in one macrophage. (See the result in table 7)

capillary permeability = experiment: Capillary permeability induced by acetic acid in the abdominal cavity; format: in vivo, NIH mice; details: 0.15 g/kg, qd × 3
Procedure: 90 NIH mice, 18˜22 g weight, half male and half female, were divided into 9 groups and drenched with the correspondent medicine solutions of the same volumn. The medicines were drenched once a day for 3 days or just 1 time. 1 hour after the last administration, each mouse were injected with 0.7% HAC-NS solution into the abdominal cavity. At the same time, each mouse was injected with the 0.5% Evans blue-NS solution into the vessel on the dose of 0.1 ml/10 g. 30 min later; all the mice were killed by cervical disjoint. The abdominal cavity was opened and washed by the 5 ml NS. The NS used was collected and adjusted to 8 ml by the pure NS as the sample. The samples were centrifuged at 3000 rpm to get the supernate. The supernate was measured the OD at the wavelength at 590 nm. (See the result in table 8)

[1] = system: pleuritis induced by the carrageenan; experiment: Carrageenan pleuritis: exudation and inflammatory cell aggregation; format: in vivo, mice; details: 0.05 g/kg
Procedure: The mice were divided into 5 groups at random and injected with 0.5% Evans blue NS solution into the caudal vein on the dosage of 0.1 ml/10 g. Then the mice were injected with the 0.03 ml 1% carrageenan in the right chest cavity with the special syring niddle. 4 hours and 32 hours after the injection, the correspondent mice were killed and opend the obdominal cavity to expose the diaphragm. 2 ml of the lotion were injected to the chest cavity by 2 times with a 1 ml injector. The lotion was collected and saved in a test tube. 20 μl of the lotion collected was added into the 400 μl WBC dilution. The WBC in the mixed dilution was counted under the microscope. The rest of the lotion was centrifuged at 3000 rpm for 10 min. The supernate of the lotion was measured the OD at the wavelength of 600 nm. The OD value of the sample should be corrected with the correspondent OD value of the pure lotion. (See the result in table 9)

[2] = system: croton oil-induced swelling; experiment: Croton oil-induced swelling of the ears; format: in vivo, NIH mice; details: 0.003 g/kg, 3 days
Procedure: 60 NIH mice with weight of 18˜22 g, male and female accounting for half and half, were divided into 6 groups, which were drenched with the same volume and different dosage of drug liquid or tragacanth liquid, once a day, lasting 3 days. 1 hour after the final administration, 2% croton oil mixure of 0.02 ml was embrocated uniformly on the both sides of left ears of mice, and after 4 hours, the mice were snapped off its cervical vertebra and put to death. The left and right ears were cut down, then inflammatory and control ears were weighted by certain means. Difference of weight between left and right ears was the swelling extent of ears, results showing in table 11.

rat AA model = experiment: Preventing effect on adjuvant arthritis (AA): swelling degree; format: in vivo, SD rats; details: 0.01 g/kg
Procedure: (§1) 72 isogenous SD rats of the same batch, half male and half female, 180˜220 g weight, were divided randomly into 6 groups. Each group has 12 rats. Every 6 rats lived in a cage. The perimeter of the double anklejoints and the feet of the rat were measured accurately and recorded as the normal value. All the rats were drenched by the same volume of the invented medicine on the correspondent concentration or the solution of the Xihuangqi by the gastic injection. 1 hour later, all the rats were injected with 0.1 ml Freund's complete adjuvant (FCA) under the skin of the left postpedes. In the next 30 days, all the rats were drenched with the correspondent medicine once a day on the same dosage. And in these days, the rats were measured of the perimeters of the double anklejoints and the feet once a day. In this experiment, the swelling degree (Δcm) equaled to the difference value of the perimeters measured after the FCA injection and before the FCA injection. (See the result in table 1.1 and 1.2) At the end of the experiment, the major organs of the rats were weighted. (See the table 1.3, 1.4)

[3] = Body weight of AA rats (prevention experiment); format: in vivo, SD rats; details: 0.01 g/kg
Procedure: as §1

[4] = Organ index of AA rats (prevention experiment); format: in vivo, SD rats
Procedure: as §1

AA rats = experiment: Therapeutic effect on AA: swelling degree; format: in vivo, SD rats; details: 0.01 g/kg
Description: (§2) 50 male SD rats were divided into 5 groups at random. The model building was same to the prevention experiment, but the correspondent medicines were drenched 13 days after the injection of the FCA. The medicines were drenched once a day for 2 weeks. The swelling degree (Δcm) was the difference of the perimeters between the value of first administration day and the other days.

[5] = Organ index of AA rats (Table 1.7); format: in vivo, SD rats; details: 0.01 g/kg
Description: as §2

Compound `CN1CCC(=C2c3ccccc3CC(=O)c3sccc32)CC1` [Ketotifen] has a PCA absorbancy (PCA in rat; serum d1 (1:5)) of 0.033 ± 0.024, a PCA value (PCA in rat; serum d1 (1:5)) of 2.78 ± 1.64 and a PCA absorbancy (PCA in rat; serum d2 (1:10)) of 0.027 ± 0.019. The PCA value (PCA in rat; serum d2 (1:10)) was 0.67 ± 1.41.

In the case of `C[C@@H]1C[C@H]2[C@@H]3CCC4=CC(=O)C=C[C@]4(C)[C@@]3(F)[C@@H](O)C[C@]2(C)[C@@]1(O)C(=O)CO` [cortisumman], the “Percent of ear swelling” value (DTH caused by DNFB) is reported as 13.93 ± 4.41 and the Percent of inhibition (DTH caused by DNFB) is reported as 59.3%.

For `C[C@@H]1C[C@H]2[C@@H]3CCC4=CC(=O)C=C[C@]4(C)[C@@]3(F)[C@@H](O)C[C@]2(C)[C@@]1(O)C(=O)CO` [dexamethasone], the Percent of phagocytosis (macrophage) was 8.33 ± 10.13 %, the phagocytosis index (macrophage) was 1.10 ± 0.18 and the “Leakage of the tincture” value (capillary permeability) was 0.11 ± 0.07 OD. The Tincture exudation ([1]; 4 h) was 0.085 ± 0.045 OD, the Tincture exudation ([1]; 32 h) was 0.063 ± 0.017 OD and the “Degree of ears' swelling” value [2] was 14.13 ± 5.75 mg. For the same compound, the inhibition at 3 mg/kg ([2]; Mus musculus, 72 h, read-out: inhibition rate) was 68.2%.

In the case of `C[C@]12C=CC(=O)C=C1CC[C@@H]1[C@@H]2C(=O)C[C@@]2(C)[C@H]1CC[C@]2(O)C(=O)CO` [prednisone], the “Swelling degree, left anklejoint and foot” value (rat AA model; 1 d) is reported as 0.64 ± 0.14 Δcm, the “Swelling degree, left anklejoint and foot” value (rat AA model; 2 d) is reported as 0.64 ± 0.16 Δcm and the “Swelling degree, left anklejoint and foot (Table 1.2)” value (“Swelling degree … (Table 1.2)” below) (rat AA model; 2 d) is reported as 0.20 ± 0.06 Δcm. For the same compound, the “Swelling degree, left anklejoint and foot” value (rat AA model; 3 d) was 0.50 ± 0.26 Δcm, the “Swelling degree, left anklejoint and foot” value (rat AA model; 9 d) was 0.46 ± 0.25 Δcm and the “Swelling degree … (Table 1.2)” value (rat AA model; 9 d) was 0.08 ± 0.08 Δcm. The “Swelling degree, left anklejoint and foot” value (rat AA model; 12 d) was 0.72 ± 0.46 Δcm, the “Swelling degree … (Table 1.2)” value (rat AA model; 12 d) was 0.21 ± 0.16 Δcm and the “Swelling degree, left anklejoint and foot” value (rat AA model; 14 d) was 0.87 ± 0.46 Δcm. The “Swelling degree … (Table 1.2)” value (rat AA model; 14 d) was 0.44 ± 0.43 Δcm, the “Swelling degree, left anklejoint and foot” value (rat AA model; 16 d) was 1.28 ± 0.69 Δcm and the “Swelling degree … (Table 1.2)” value (rat AA model; 16 d) was 0.99 ± 0.63 Δcm. The “Swelling degree … (Table 1.2)” value (rat AA model; 18 d) was 0.84 ± 0.74 Δcm, the “Swelling degree, left anklejoint and foot” value (rat AA model; 20 d) was 1.03 ± 0.67 Δcm and the “Swelling degree … (Table 1.2)” value (rat AA model; 20 d) was 0.82 ± 0.72 Δcm. For the same compound, the “Swelling degree, left anklejoint and foot” value (rat AA model; 22 d) was 1.05 ± 0.69 Δcm, the “Swelling degree … (Table 1.2)” value (rat AA model; 22 d) was 0.79 ± 0.74 Δcm and the “Swelling degree, left anklejoint and foot” value (rat AA model; 24 d) was 0.90 ± 0.64 Δcm. The “Swelling degree … (Table 1.2)” value (rat AA model; 24 d) was 0.75 ± 0.67 Δcm, the “Swelling degree, left anklejoint and foot” value (rat AA model; 26 d) was 0.86 ± 0.65 Δcm and the “Swelling degree … (Table 1.2)” value (rat AA model; 26 d) was 0.68 ± 0.64 Δcm. The “Swelling degree, left anklejoint and foot” value (rat AA model; 28 d) was 0.85 ± 0.59 Δcm, the “Swelling degree … (Table 1.2)” value (rat AA model; 28 d) was 0.71 ± 0.67 Δcm and the “BW at 1 month later” value [3] was 244 ± 31 g. For the same compound, the BW change [3] was -21 g, the “Initiative BW” value [3] was 264 ± 55 g and the “Organ index [(organ weight/body weight)/100] Liver” value ([4]; 0.01 g/kg) was 3.04 ± 0.20. For the same compound, the “Organ index [(organ weight/body weight)/100] Spleen” value ([4]; 0.01 g/kg) was 0.32 ± 0.08, the “Organ index [(organ weight/body weight)/100] Thymus” value ([4]; 0.01 g/kg) was 0.050 ± 0.060 and the “Organ index [(organ weight/body weight)/100] adrenal gland” value ([4]; 0.01 g/kg) was 0.020 ± 0.004. For the same compound, the “atrophy of the thymus and adrenal gland” value ([4]; AA rats, tables 1.4 and 1.7) was “atrophied”, the “Swelling degree, left anklejoint and foot” value (AA rats; 1 d) was 1.78 ± 0.51 Δcm and the “Swelling degree, left anklejoint and foot” value (AA rats; 2 d) was 1.70 ± 0.51 Δcm. For the same compound, the “Swelling degree, right anklejoint and foot” value (AA rats; 2 d) was 0.10 ± 0.13 Δcm, the “Swelling degree, left anklejoint and foot” value (AA rats; 4 d) was 1.63 ± 0.50 Δcm and the “Swelling degree, right anklejoint and foot” value (AA rats; 4 d) was 0.15 ± 0.28 Δcm. The “Swelling degree, left anklejoint and foot” value (AA rats; 6 d) was 1.58 ± 0.50 Δcm, the “Swelling degree, right anklejoint and foot” value (AA rats; 6 d) was 0.11 ± 0.25 Δcm and the “Swelling degree, left anklejoint and foot” value (AA rats; 8 d) was 1.27 ± 0.46 Δcm. The “Swelling degree, right anklejoint and foot” value (AA rats; 8 d) was −0.08 ± 0.34 Δcm, the “Swelling degree, left anklejoint and foot” value (AA rats; 10 d) was 1.09 ± 0.54 Δcm and the “Swelling degree, right anklejoint and foot” value (AA rats; 10 d) was −0.13 ± 0.28 Δcm. For the same compound, the “Swelling degree, left anklejoint and foot” value (AA rats; 12 d) was 0.94 ± 0.50 Δcm, the “Swelling degree, right anklejoint and foot” value (AA rats; 12 d) was −0.26 ± 0.36 Δcm and the “Swelling degree, left anklejoint and foot” value (AA rats; 14 d) was 0.94 ± 0.42 Δcm. For the same compound, the “Swelling degree, right anklejoint and foot” value (AA rats; 14 d) was −0.33 ± 0.39 Δcm, the “Organ index [(organ weight/body weight)/100] Liver” value [5] was 3.52 ± 0.35 and the “Organ index [(organ weight/body weight)/100] Spleen” value [5] was 0.28 ± 0.047. For the same compound, the “Organ index [(organ weight/body weight)/100] Thymus” value [5] was 0.05 ± 0.011 and the “Organ index [(organ weight/body weight)/100] adrenal gland” value [5] was 0.02 ± 0.0043.
